Measurements: patent US20110098325A1, “PYRIDINE BENZAMIDES AND PYRAZINE BENZAMIDES USED AS PKD INHIBITORS” (CANCER RESEARCH TECHNOLOGY LIMITED, priority 2006, published 2011)

Molecular target: T1, Murine PKD1 kinase domain (Mus musculus, UniProt Q62101)
T1 construct: hexahistidine (pFastBac HTb leader) (N); made in house; host or cells: Sf9 insect cells, baculovirus (Bac-to-Bac HT, pFastBac HTb)
T1 sequence (Q62101 with tags, fused parts or gaps R683W): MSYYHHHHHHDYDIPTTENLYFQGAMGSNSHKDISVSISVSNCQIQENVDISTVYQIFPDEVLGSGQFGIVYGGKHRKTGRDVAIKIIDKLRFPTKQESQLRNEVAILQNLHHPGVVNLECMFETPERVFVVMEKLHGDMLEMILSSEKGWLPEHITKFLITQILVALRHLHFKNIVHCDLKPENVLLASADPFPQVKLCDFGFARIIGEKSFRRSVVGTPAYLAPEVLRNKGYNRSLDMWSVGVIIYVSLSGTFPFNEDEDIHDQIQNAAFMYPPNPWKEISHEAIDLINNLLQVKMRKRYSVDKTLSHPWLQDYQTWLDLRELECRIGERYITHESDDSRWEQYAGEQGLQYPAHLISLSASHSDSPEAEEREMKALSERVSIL
Assay: PKD1 (Murine Kinase Domain) Enzyme Activity Assay (IMAP fluorescence polarisation)
Type: biochemical
Details: 10 μM ATP, 60 minutes, room temperature
Description: The DNA sequence corresponding to murine PKD1 (see FIG. 1) was inserted into pFastBAc Htb (Invitrogen, USA) at BamH1 and EcoR1 sites using standard molecular biology techniques.
The PKD1 described above was expressed as a hexahistidine tagged protein construct using a commercially available baculoviral expression system that induces protein production in insect cell culture (Bac-to-Bac® HT Baculovirus Expression System, Invitrogen). Protein was typically expressed by inoculating 1 L of sf9 cells with a genetically modified baculovirus containing the gene for the kinase domain of PKD1. Sf9 cells were obtained from ICR Ltd.
Purification of PKD1 was achieved by standard chromatographic procedures. Capture from crude centrifuged lysed cell supernatant was achieved using metal affinity chromatography (GE Healthcare Life Sciences, HiTrap Chelating chromatography column), and fractions showing PKD1 (as assessed by gel electrophoresis and western blot) were further purified by a single polish purification step performed using a mono Q anion exchange chromatography system (GE Healthcare Life Sciences, HiTrap HP Q column). […] This protocol describes the method for screening compounds as inhibitors of Protein Kinase D activity in a 384 well microplate format fluorescence polarisation IMAP assay performed using the Biomek FX.
Kinase Enzyme: Murine PKD1 kinase domain at ˜100 μg/mL, was purified from baculovirus (as described above), obtained from aliquots stored at −70° C. PKD was prepared with a final concentration of 0.1 μg/mL by diluting 1:300 in Reaction Buffer (30 μL per 9 mL-5 mL per plate with an additional 4 mL dead volume) and vortexing prior to use. It was necessary to check this concentration regularly in case of enzyme degradation.
(also known as MAPKAP K2 substrate) was obtained from Molecular Devices (Product code R7127). It was used at 300 nM by diluting 20 μM stock 1:66 in Kinase/Reaction Buffer (135 μL per 9 mL; 75 μL per 5 mL Reaction Buffer for blank wells requiring <1 mL per place with an additional 4 mL dead volume).
A 1 mM ATP stock in Reaction Buffer was prepared from a 10 mM stock in 20 mM NaOH and stored as aliquots at −70° C. It was used at 40 μM by diluting 1 mM stock 1:25 in Reaction Buffer (240 μL per 6 mL-2 mL per plate with an additional 4 mL dead volume) and vortexing prior to use.
IMAP Reagents: IMAP Binding Reagent (product code R7207) and Binding Buffer (product code R7208) were obtained from Molecular Devices and stored at +4° C. The beads were gently re-suspended before diluting by 1:400 in buffer (Binding Buffer is supplied as a 5× stock and so was diluted with water prior to use) and then vortexing before addition to wells. 16 mL water with 4 mL Binding Buffer and 50 μL Binding Reagent were used per plate (17 mL per plate with an additional 3 mL dead volume).
13 μL Substrate in Reaction Buffer was added to ‘blank’ wells to give 200 nM reaction concentration. […] 2 μL 10% DMSO/water was added to ‘blank’ and ‘control’ wells. 5 μL ATP in Reaction Buffer was added to all wells to give 10 μM reaction concentration. The reaction mixture was then incubated at room temperature for 60 minutes. The incubation period was followed by the addition of 40 μL IMAP Binding Reagent in Binding Buffer to all wells. The reaction was then further incubated at room temperature for […].
Percentage inhibition was calculated based on activity of the test sample minus the average values in the blank wells relative to the average values measured in control wells minus the average values in the blank wells.
IC50 values were calculated from 10 point dose sigmoid ‘dose-response’ curves using Xlfit software (IDBS inc, USA). Data were fitted to a 4 parameter logistic model/sigmoidal dose response:
where: A=fit minimum (locked to 0); B=fit maximum (locked to 100); C=fit midpoint (pre-fit to 1); D=slope at linear portion of curve, hillslope (pre-fit to 0.1)

SMILES | IC50 [nM]
CN(C)CCNC(=O)c1cccc(-c2cnc(N)c(-c3cccc4c3sc3ccccc34)c2)c1 [Y-015, 3-(6-Amino-5-dibenzothiophen-4-yl-pyridin-3-yl)-N-(2-dimethylamino-ethyl)-benzamide] | < 1000
NC(=O)c1cccc(-c2cnc(N)c(-c3ccoc3)c2)c1 [Y-016, 3-(6-Amino-5-furan-3-yl-pyridin-3-yl)-benzamide] | < 1000
CN(C)CCNC(=O)c1cccc(-c2cnc(N)c(-c3ccoc3)c2)c1 [Y-017, 3-(6-Amino-5-furan-3-yl-pyridin-3-yl)-N-(2-dimethylamino-ethyl)-benzamide] | < 1000
CN(C)CCNC(=O)c1cccc(-c2cnc(N)c(-c3cccc4cnccc34)c2)c1 [Y-018, 3-(6-Amino-5-isoquinolin-5-yl-pyridin-3-yl)-N-(2-dimethylamino-ethyl)-benzamide] | 1000 to 10000
CN(C)CCNC(=O)c1cccc(-c2cnc(N)c(-c3cccc4ccccc34)c2)c1 [Y-019, 3-(6-Amino-5-naphthalen-1-yl-pyridin-3-yl)-N-(2-dimethylamino-ethyl)-benzamide] | < 1000
CN(C)CCNC(=O)c1cccc(-c2cnc(N)c(-c3ccc4ccccc4c3)c2)c1 [Y-020, 3-(6-Amino-5-naphthalen-2-yl-pyridin-3-yl)-N-(2-dimethylamino-ethyl)-benzamide] | < 1000
NC(=O)c1cccc(-c2cnc(N)c(-c3cccc4ncccc34)c2)c1 [Y-021, 3-(6-Amino-5-quinolin-5-yl-pyridin-3-yl)-benzamide] | 1000 to 10000
CN(C)CCNC(=O)c1cccc(-c2cnc(N)c(-c3cccc4ncccc34)c2)c1 [Y-022, 3-(6-Amino-5-quinolin-5-yl-pyridin-3-yl)-N-(2-dimethylamino-ethyl)-benzamide] | < 1000
CN(C)CCNC(=O)c1cccc(-c2cnc(N)c(-c3cccc4cccnc34)c2)c1 [Y-023, 3-(6-Amino-5-quinolin-8-yl-pyridin-3-yl)-N-(2-dimethylamino-ethyl)-benzamide] | < 1000
CN(C)CCNC(=O)c1cccc(-c2cnc(N)c(-c3cccs3)c2)c1 [Y-024, 3-(6-Amino-5-thiophen-2-yl-pyridin-3-yl)-N-(2-dimethylamino-ethyl)-benzamide] | < 1000
NC(=O)c1cccc(-c2cnc(N)c(-c3ccc4[nH]ccc4c3)c2)c1 [Y-025, 3-[6-Amino-5-(1H-indol-5-yl)-pyridin-3-yl]-benzamide] | < 1000
CN(C)CCNC(=O)c1cccc(-c2cnc(N)c(-c3ccc4[nH]ccc4c3)c2)c1 [Y-026, 3-[6-Amino-5-(1H-indol-5-yl)-pyridin-3-yl]-N-(2-dimethylamino-ethyl)-benzamide] | < 1000
CN(C)CCNC(=O)c1cccc(-c2cnc(N)c(-c3ccc4c(ccn4C)c3)c2)c1 [Y-027, 3-[6-Amino-5-(1-methyl-1H-indol-5-yl)-pyridin-3-yl]-N-(2-dimethylamino-ethyl)-benzamide] | < 1000
CN(C)CCNC(=O)c1cccc(-c2cnc(N)c(-c3ccc4c(c3)CCO4)c2)c1 [Y-028, 3-[6-Amino-5-(2,3-dihydro-benzofuran-5-yl)-pyridin-3-yl]-N-(2-dimethylamino-ethyl)-benzamide] | < 1000
COc1ncc(-c2cc(-c3cccc(C(=O)NCCN(C)C)c3)cnc2N)c(OC)n1 [Y-029, 3-[6-Amino-5-(2,4-dimethoxy-pyrimidin-5-yl)-pyridin-3-yl]-N-(2-dimethylamino-ethyl)-benzamide] | < 1000
CN(C)CCNC(=O)c1cccc(-c2cnc(N)c(-c3ccccc3OCc3ccccc3)c2)c1 [Y-030, 3-[6-Amino-5-(2-benzyloxy-phenyl)-pyridin-3-yl]-N-(2-dimethylamino-ethyl)-benzamide] | 1000 to 10000
CN(C)CCNC(=O)c1cccc(-c2cnc(N)c(-c3ccc(-c4ccccc4)c(F)c3)c2)c1 [Y-031, 3-[6-Amino-5-(2-fluoro-biphenyl-4-yl)-pyridin-3-yl]-N-(2-dimethylamino-ethyl)-benzamide] | < 1000
CN(C)CCNC(=O)c1cccc(-c2cnc(N)c(-c3ccc(F)c(F)c3)c2)c1 [Y-033, 3-[6-Amino-5-(3,4-difluoro-phenyl)-pyridin-3-yl]-N-(2-dimethylamino-ethyl)-benzamide] | < 1000
COc1ccc(-c2cc(-c3cccc(C(N)=O)c3)cnc2N)cc1OC [Y-034, 3-[6-Amino-5-(3,4-dimethoxy-phenyl)-pyridin-3-yl]-benzamide] | 1000 to 10000
COc1ccc(-c2cc(-c3cccc(C(=O)NCCN(C)C)c3)cnc2N)cc1OC [Y-035, 3-[6-Amino-5-(3,4-dimethoxy-phenyl)-pyridin-3-yl]-N-(2-dimethylamino-ethyl)-benzamide] | < 1000
Cc1ccc(-c2cc(-c3cccc(C(=O)NCCN(C)C)c3)cnc2N)cc1C [Y-036, 3-[6-Amino-5-(3,4-dimethyl-phenyl)-pyridin-3-yl]-N-(2-dimethylamino-ethyl)-benzamide] | < 1000
CN(C)CCNC(=O)c1cccc(-c2cnc(N)c(-c3cc(Cl)cc(Cl)c3)c2)c1 [Y-037, 3-[6-Amino-5-(3,5-dichloro-phenyl)-pyridin-3-yl]-N-(2-dimethylamino-ethyl)-benzamide] | < 1000
CN(C)CCNC(=O)c1cccc(-c2cnc(N)c(-c3cccc(OCc4ccccc4)c3)c2)c1 [Y-038, 3-[6-Amino-5-(3-benzyloxy-phenyl)-pyridin-3-yl]-N-(2-dimethylamino-ethyl)-benzamide] | < 1000
CN(C)CCNC(=O)c1cccc(-c2cnc(N)c(-c3ccc(F)c(Cl)c3)c2)c1 [Y-039, 3-[6-Amino-5-(3-chloro-4-fluoro-phenyl)-pyridin-3-yl]-N-(2-dimethylamino-ethyl)-benzamide] | < 1000
CN(C)CCNC(=O)c1cccc(-c2cnc(N)c(-c3cccc(Cl)c3)c2)c1 [Y-040, 3-[6-Amino-5-(3-chloro-phenyl)-pyridin-3-yl]-N-(2-dimethylamino-ethyl)-benzamide] | < 1000
CN(C)CCNC(=O)c1cccc(-c2cnc(N)c(-c3cccc(C#N)c3)c2)c1 [Y-041, 3-[6-Amino-5-(3-cyano-phenyl)-pyridin-3-yl]-N-(2-dimethylamino-ethyl)-benzamide] | < 1000
CN(C)CCNC(=O)c1cccc(-c2cnc(N)c(-c3ccc(O)c(F)c3)c2)c1 [Y-042, 3-[6-Amino-5-(3-fluoro-4-hydroxy-phenyl)-pyridin-3-yl]-N-(2-dimethylamino-ethyl)-benzamide] | < 1000
COc1ccc(-c2cc(-c3cccc(C(=O)NCCN(C)C)c3)cnc2N)cc1F [Y-043, 3-[6-Amino-5-(3-fluoro-4-methoxy-phenyl)-pyridin-3-yl]-N-(2-dimethylamino-ethyl)-benzamide] | < 1000
Cc1ccc(-c2cc(-c3cccc(C(=O)NCCN(C)C)c3)cnc2N)cc1F [Y-044, 3-[6-Amino-5-(3-fluoro-4-methyl-phenyl)-pyridin-3-yl]-N-(2-dimethylamino-ethyl)-benzamide] | < 1000
CN(C)CCNC(=O)c1cccc(-c2cnc(N)c(-c3ccc(-c4ccccc4)cc3F)c2)c1 [Y-045, 3-[6-Amino-5-(3-fluoro-biphenyl-4-yl)-pyridin-3-yl]-N-(2-dimethylamino-ethyl)-benzamide] | < 1000
